Experimental data as given in PubChem BioAssay AID712 (Emory University Molecular Libraries Screening Center, 2007).
The source made the active and inactive calls. No rule for the calls is given here.

target: Heat shock protein HSP 90-alpha (Homo sapiens) (UniProt P07900); assay: Hsp90 blockade concentration-response – dose response (AID 712); settings: Hsp90 inhibition assay

Structure (SMILES)	IC50
Nc1cc(Br)cc2cccnc12	> 50 µM (inactive)
O=C(NC1(O)C(=O)c2ccccc2C1=O)c1ccccc1	19.5 µM
CC(Cc1ccc(O)c(O)c1)C(C)Cc1ccc(O)c(O)c1 (stereo unspecified)	2.62 µM
N#C/C(=C\c1ccc(O)c(O)c1)C(=O)NCCCc1ccccc1	19.1 µM
COc1ccc2c(c1-c1cc(NS(=O)(=O)c3ccc(C)cc3)ccc1N)OCO2	> 50 µM (inactive)
Cc1ccc(S(=O)(=O)Nc2ccc3oc(=O)sc3c2)c(C)c1	inactive
COc1cc(NC(=O)CCCCCCN)c2ncccc2c1	> 50 µM (inactive)
CC(C)CN1C(=O)NC(NC(=O)c2ccco2)(C(F)(F)F)C1=O (stereo unspecified)	> 50 µM (inactive)
CCCC(C)C(=O)Nc1cc(OC)ccc1OC (stereo unspecified)	> 50 µM (inactive)
NCc1cc(S(=O)(=O)Nc2cc(O)cc3cccnc23)ccc1F	> 50 µM (inactive)
NNc1ccc2c(Cl)cc(Cl)c(O)c2n1	> 50 µM (inactive)
N#Cc1c(-c2ccco2)[nH]c(=O)[nH]c1=O	> 50 µM (inactive)
O=C(NCCN1CCOCC1)NC1(C(F)(F)F)Oc2ccc(Cl)cc2O1 (stereo unspecified)	> 50 µM (inactive)
OCCN(CCO)c1nc(N2CCCCC2)c2nc(N(CCO)CCO)nc(N3CCCCC3)c2n1	21.1 µM
O=C1c2ccccc2C(Nc2ccc3c(c2)OCO3)N1Cc1ccc2c(c1)OCO2 (stereo unspecified)	> 50 µM (inactive)
CCOC(=O)NC1(Nc2ccc(Cl)cn2)Oc2ccccc2O1	> 50 µM (inactive)
Cn1cnnc1SCC(=O)c1ccc2c(c1)CCCC2	> 50 µM (inactive)
O=C(NCCCn1ccnc1)c1noc2c1CCc1ccccc1-2	13.5 µM
CC(=O)c1ccc(NC(=O)CSc2nnc(Cc3cccn3C)n2-c2ccc(F)cc2)cc1	> 50 µM (inactive)
CCc1cc(C(=O)Cc2cscn2)c(O)cc1O	> 50 µM (inactive)
OCCCc1nc2n(n1)C(c1ccccc1)C=C(c1ccccc1)N2 (stereo unspecified)	> 50 µM (inactive)
Nc1ccc(NS(=O)(=O)c2ccccc2[N+](=O)[O-])cc1-c1ccccc1O	> 50 µM (inactive)
CCOC(=O)c1oc2c(O)c(O)ccc2c(=O)c1-c1nncn1-c1ccccc1	24.1 µM

Structure (SMILES)	IC50
CCOc1ccc2ccccc2c1-c1cc(NS(=O)(=O)c2cc(Cl)ccc2Cl)ccc1N	> 50 µM (inactive)
Nc1nonc1N1CCCCC1	> 50 µM (inactive)
Cn1c(=O)c2c(nc(Oc3ccc4c(c3)OCO4)n2Cc2ccc(Cl)cc2)n(C)c1=O	> 50 µM (inactive)
COc1cc(NCCN(CC(C)C)CC(C)C)c2ncccc2c1	inactive
Nc1cc(N)nc(SCC(=O)Nc2nncs2)n1	> 50 µM (inactive)
COc1ccc(C2CC(c3ccccc3O)=NN2)cc1OC (stereo unspecified)	> 50 µM (inactive)
O=C(O)c1cc(O)c2c(c1)C(=O)c1cccc(O)c1C2=O	3.34 µM
COc1ccc(C2=NO[C@@H]3C(=O)N(c4ccc5c(c4)OCCO5)C(=O)[C@H]23)cc1OC	29.7 µM
CCc1cc(C(=O)Cn2cnc3ccccc32)c(O)cc1O	> 50 µM (inactive)
O=C(O)c1ccccc1C1=Nc2ccc(O)cc2Oc2cc(O)ccc21	13 µM
COc1ccc(N2C(=O)CSC23C(=O)N2CCCc4cccc3c42)cc1 (stereo unspecified)	> 50 µM (inactive)
c1ccc2[nH]c(SCc3ccc(-c4nnco4)cc3)nc2c1	> 50 µM (inactive)
O=S(=O)(Nc1ccc(O)c(-c2c(O)ccc3ccccc23)c1)c1ccccc1	13 µM
NCCCCCNc1cc(O)cc2cccnc12	< 1.56 µM
COc1ccc(N2CSC3=C(C#N)C(c4ccc(OC)c(OC)c4)CC(=O)N3C2)c(OC)c1 (stereo unspecified)	> 50 µM (inactive)
CC(=O)CCc1c(C)[nH]c2ccccc2c1=O	> 50 µM (inactive)
CC(=O)Oc1cc2c(C(=O)NCCCN3CCOCC3)c(C)oc2c2ccccc12	4.65 µM
O=C(NCc1cccnc1)C1c2ccccc2C(=O)N1Cc1ccco1 (stereo unspecified)	> 50 µM (inactive)
CCOc1ccc(S(=O)(=O)Nc2cc(Sc3ncn[nH]3)c3oc(=O)sc3c2)cc1	inactive
Nc1nc2c(s1)CCc1c-2cnn1-c1ccccc1	11.2 µM
Cc1ccc(S(=O)(=O)Nc2ccc(F)c(-c3c(O)ccc4c3OCO4)c2)cc1	25 µM
COc1ccc(NS(=O)(=O)c2ccccc2)c(OC)c1	> 50 µM (inactive)
Nc1ccc(NS(=O)(=O)c2ccccc2N)cc1-c1ccccc1O	> 50 µM (inactive)

Structure (SMILES)	IC50
Cc1ccc(S(=O)(=O)N2CCC(C(=O)N[C@@H](C)C(=O)Nc3ccc4c(c3)OCO4)CC2)cc1	11.9 µM
C[C@H]1CCCC(=O)CCCCCc2cc(O)cc(O)c2C(=O)O1	2.2 µM
Oc1ccc2[nH]ccc2c1	> 50 µM (inactive)
Nc1cc2c(c(O)c1O)C(=O)c1ccccc1C2=O	< 1.56 µM
Nc1cc(=O)c2n[nH]nc2[nH]1	> 50 µM (inactive)
COc1ccc(S(=O)(=O)Nc2ccc(O)c(-c3ccccc3O)c2)cc1OC	> 50 µM (inactive)
O=[N+]([O-])c1ccc(NS(=O)(=O)c2ccccc2)c(O)c1	> 50 µM (inactive)
CC(C)(C)OC(=O)Nc1cccc(NS(=O)(=O)c2cc(Cl)ccc2Cl)c1-c1ccccc1O	> 50 µM (inactive)
N#Cc1cc(S(=O)(=O)Nc2cc(O)cc3cccnc23)ccc1F	inactive
Nc1ccc(Cc2ccccc2)c(O)c1	> 50 µM (inactive)
Cc1c(-c2nn(C)c(=O)c3ccccc23)oc2ccc(F)cc2c1=O	2.46 µM
COc1ccc(NCc2cc3cc(OC)ccc3[nH]c2=O)cc1	> 50 µM (inactive)
CC(C)OC(=O)CSc1nc2ccccc2s1	> 50 µM (inactive)
Nc1cccc2cnccc12	> 50 µM (inactive)
Nc1cccc2cccnc12	> 50 µM (inactive)
Cc1noc(C(=O)Nc2ccc3c(c2)OCO3)c1Cl	22.5 µM
Oc1cc(O)c2ncccc2c1	> 50 µM (inactive)
CC(=O)Oc1cc2oc(=O)cc(C)c2cc1OC(C)=O	> 50 µM (inactive)
Nc1ccc(NS(=O)(=O)c2ccccc2)c(O)c1	> 50 µM (inactive)
Cc1cc(SCC(N)=O)nc(SCC(=O)c2ccccc2)n1	> 50 µM (inactive)
CC(CCN(C)C)Nc1cc(O)cc2cccnc12 (stereo unspecified)	1.56 µM
Cc1ccc2[nH]c3c(c2c1)CN(C(=O)CN1CCN(c2ccccc2)CC1)CC3	> 50 µM (inactive)
CCN(CC)CCCCCNc1cc(O)cc2cccnc12	6.25 µM

Structure (SMILES)	IC50
COc1cccc2c1C(=O)c1c(O)c3c(c(O)c1C2=O)C[C@@](O)(C(C)=O)C[C@@H]3O[C@H]1C[C@H](N)[C@H](O)[C@H](C)O1	0.174 µM
CCOc1ccc(NCC(=O)Nc2ccc(C)cc2C)cc1	7.86 µM
N#Cc1cc(S(=O)(=O)Nc2cc(OCc3ccccc3)cc3cccnc23)ccc1F	> 50 µM (inactive)
O=C1c2ccccc2C(=O)N1Cc1ccc2c(c1)OCO2	> 50 µM (inactive)
CCn1nc(-c2ccccc2)nc2c(=O)n(C)c(=O)nc1-2	0.136 µM
C=CCNC(=O)CN(c1cccc(Br)c1)S(C)(=O)=O	> 50 µM (inactive)
Oc1ccc(-c2onc(C(F)(F)F)c2-c2cscn2)c(O)c1	18 µM
Cc1ccc(S(=O)(=O)C(CCC(=O)N2CCOCC2)S(=O)(=O)c2ccc(C)cc2)cc1	> 50 µM (inactive)
COc1ccc2c3c(cccc13)NN=C2C	8.36 µM
O=C(O)c1ccc2c3c(ncnc13)-c1ccccc1C2=O	5.22 µM
O=C(Nc1nc(-c2ccc3c(c2)OCO3)cs1)C1COc2ccccc2O1 (stereo unspecified)	> 50 µM (inactive)
O=c1cc(NCCCO)c2ccccc2o1	> 50 µM (inactive)
O=C1C2C3C=CC(C3)C2C(=O)N1CNc1ccc(O)cc1 (stereo unspecified)	14.7 µM
CCOc1cc(N2CCOCC2)c(OCC)cc1NC1=NCCCCC1	13 µM
O=C(CSc1nnc(Cc2cc(=O)[nH]c(=O)[nH]2)n1-c1ccccc1)NCC1CCCO1 (stereo unspecified)	> 50 µM (inactive)
CCOc1ccc2ccccc2c1-c1cc(NS(=O)(=O)c2cc(Cl)ccc2Cl)ccc1NC(=O)OC(C)(C)C	> 50 µM (inactive)
Oc1ccc(-c2nc(-c3ccc(O)c(O)c3)cs2)cc1	0.74 µM
COc1cc(N)c2nccc(OCc3ccccc3)c2c1	> 50 µM (inactive)
Nc1cc(N)nc(SCCOc2ccccc2F)n1	> 50 µM (inactive)
Nc1cc(N)c2cccnc2c1O	3.13 µM
CCOC(=O)C1=C(C)OC(N)=C(C(=O)OCC)C1c1cccnc1 (stereo unspecified)	> 50 µM (inactive)
Nc1cccc(S(=O)(=O)Nc2ccc(N)c(-c3ccccc3O)c2)c1	> 50 µM (inactive)
O=c1c(-c2ccc3c(c2)OCCO3)coc2c(CN3CCOCC3)c(O)ccc12	> 50 µM (inactive)

Structure (SMILES)	IC50
Cn1c(=O)c2c(nc(CN3CCc4ccccc4C3)n2CCCO)n(C)c1=O	> 50 µM (inactive)
COc1ccccc1-c1nnc2n1N=C(c1ccc(O)c(O)c1)CS2	10.7 µM
O=C(O)/C=C/c1ccc(O)c(O)c1	> 50 µM (inactive)
Cn1ncnc2c(=O)n(C)c(=O)nc1-2	0.238 µM
CCn1nnc(NC(=O)COc2cc(C)ccc2C(C)C)n1	> 50 µM (inactive)
O=C1C(=Cc2ccccn2)CNCC1=Cc1ccccn1	> 50 µM (inactive)
Nc1cc(Cl)cc2cccnc12	> 50 µM (inactive)
Cc1c(N=c2c(=O)c3ccccc3c2=O)c(=O)n(-c2ccccc2)n1C	20.6 µM
CC(=O)CCCNc1c(OCc2ccccc2)ccc2c(C)cc(=O)oc12	> 50 µM (inactive)
N#Cc1c(N2CCCC2)nc(N)c2c(N)nc(N3CCCC3)cc12	2.41 µM
COc1ccc(C2CC(=O)C3=C(C2)Nc2ncnn2C3c2ccccc2)cc1 (stereo unspecified)	> 50 µM (inactive)
Oc1c(I)cc(Cl)c2cccnc12	> 50 µM (inactive)
CCS(=O)(=O)NCc1ccc2[nH]c3c(c2c1)CCCC3	29.2 µM
COC(=O)c1cc(=O)[nH]c2ccc(C)cc12	> 50 µM (inactive)
CCOc1ccc2ccccc2c1-c1cc(NS(=O)(=O)c2ccc(OC)c(OC)c2)ccc1N	> 50 µM (inactive)
CCOC(=O)c1c(C)[nH]c2ccc(O)cc12	> 50 µM (inactive)
Oc1cccc2cccnc12	> 50 µM (inactive)
O=[N+]([O-])c1ccc(O)c2cccnc12	> 50 µM (inactive)
CN(C)[C@@H]1C(=O)C(C(N)=O)=C(O)[C@@]2(O)C(=O)C3=C(O)c4c(O)cccc4[C@@](C)(O)[C@H]3C[C@@H]12	22.4 µM
